Results as given in patent US11242351B2, “Tricyclic inhibitors of the BCL6 BTB domain protein-protein interaction and uses thereof” (priority 2017, dated 2022).
Read-outs that look alike come from different tables or passages of the source.

What was measured:
Karpas422 cells = assay: Tumor cell growth inhibition assay; type: cell-based; details: Homo sapiens, KARPAS-422, 144 h, read-out: GI Karpas EC50
Procedure, shortened: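 Karpas422 cells were dosed over a 10-point concentration range (top 5 μM) and grown 6 days at 37 °C, 5% CO2, in Alpha-MEM with 10% FBS. Viability was read as ATPlite luminescence.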

[1] = target: BCL6 BTB domain (biotin-thrombin-BCL6 amino acids 1-129) (Homo sapiens (Human), UniProt P41182); assay: Surface Plasmon Resonance (SPR) assay; type: binding; details: Biacore T200, single cycle kinetic analysis
Method: Surface Plasmon Resonance (SPR) Assay
SPR studies were performed using a Biacore™ T200 instrument (GE Health Sciences Inc.). […] The Biacore flow rate was set at 100 μl/min. […] Curve fitting and KD calculations were performed with the Biacore T200 Evaluation software (GE Health Sciences Inc).

[2] = test system: BCL6 reporter construct in SuDHL4-3×BCL6-TK-Luc cells; assay: Cell-based luciferase assay (BCL6 reporter); details: 48 h, read-out: Luc IC50
Procedure, shortened: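 SuDHL4 cells stably carrying a 3×BCL6-site TK-promoter firefly luciferase reporter, 15,000 cells/well, dosed over 10 concentrations (top 10 μM) and cultured two days at 37° C, 5% CO2. Luciferase luminescence read after room-temperature equilibration with neolite reagent.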

[3] = Karpas422 cells, six days, ATPlite
[4] = SuDHL4-3×BCL6-TK-Luc cells, two days

With `CCN1CCN(c2cc(NC(=O)Cn3cc(-c4cc(Cl)c(O)c(C(N)=O)c4)c4c(=O)n5c(nc43)CCC5)c(Cl)c(F)n2)[C@@H](C)C1` [I-82, (S)-3-chloro-5-(1-(2-((3-chloro-6-(4-ethyl-2-methylpiperazin-1-yl)-2-fluoropyridin-4-yl)amino)-2-oxoethyl)-4-oxo-4,6,7,8-tetra-hydro-1H-dipyrrolo [1,2-a:2′,3′-d]pyrimi-din-3-yl)-2-hydroxy-benzamide] the EC50 (Karpas422 cells; [3]) was 27.8 nM, the Kd [1] was 4.13 nM and the IC50 [2, 4] was 63.1 nM.
Molecule `C[C@H]1CN(C)CCN1c1cc(NC(=O)Cn2cc(-c3cc(C(N)=O)c(O)c(F)c3F)c3c(=O)n4c(nc32)CC(C)(C)C4)c(Cl)c(F)n1` [I-57, (S)-5-(1-(2-((3-chloro-6-(2,4-dimethyl-piperazin-1-yl)-2-fluoropyridin-4-yl)amino)-2-oxoethyl)-7,7-dimethyl-4-oxo-4,6,7,8-tetrahydro-1H-dipyrrolo[1,2-a:2′,3′-d]pyrimidin-3-yl)-3,4-difluoro-2-hydroxy-benzamide] has an EC50 (Karpas422 cells) of 62.1 nM, a Kd [1] of 11.2 nM and an IC50 [2] of 114 nM.
Work on `C[C@@H]1CN(C)C[C@H](C)N1c1cc(NC(=O)Cn2cc(-c3cc(C(N)=O)c(O)c4c3OCO4)c3c(=O)n4c(nc32)CCC4)c(Cl)c(F)n1` [I-98, 7-(1-(2-((3-chloro-2-fluoro-6-((2R,6S)-2,4,6-trimethylpiperazin-1-yl)pyridin-4-yl)amino)-2-oxoethyl)-4-oxo-4,6,7,8-tetrahydro-1H-dipyrrolo [1,2-a:2′,3′-d]pyrimidin-3-yl)-4-hydroxybenzo [d][1,3]dioxole-5-carboxamide] yielded an EC50 (Karpas422 cells) of 8.42 nM, a Kd [1] of 0.96 nM and an IC50 [2] of 8.16 nM.
Work on `CC1Cc2nc3c(c(-c4cc(F)c(O)c(C(N)=O)c4)cn3CC(=O)Nc3cc(N4CCN(C)C[C@@H]4C)nc(F)c3Cl)c(=O)n2C1` (stereo partly drawn) [I-78, 5-(1-(2-((3-chloro-6-((S)-2,4-dimethyl-piperazin-1-yl)-2-fluoropyridin-4-yl)amino)-2-oxoethyl)-7-methyl-4-oxo-4,6,7,8-tetrahydro-1H-dipyrrolo[1,2-a:2′,3′-d]pyrimidin-3-yl)-3-fluoro-2-hydroxy-benzamide] yielded an EC50 (Karpas422 cells; [3]) of 21 nM, a Kd [1] of 2.03 nM and an IC50 [2, 4] of 30.7 nM.
With `COCCN1CCN(c2cc(NC(=O)Cn3cc(-c4cc(C(N)=O)c(O)c(F)c4F)c4c(=O)n5c(nc43)CCC5)c(Cl)c(F)n2)[C@@H](C)C1` [I-25, (S)-5-(1-(2-((3-chloro-2-fluoro-6-(4-(2-methoxyethyl)-2-methyl-piperazin-1-yl)pyridin-4-yl)amino)-2-oxoethyl)-4-oxo-4,6,7,8-tetrahydro-1H-dipyrrolo[1,2-a:2′,3′-d]pyrimidin-3-yl)-3,4-difluoro-2-hydroxy-benzamide] the EC50 (Karpas422 cells; [3]) was 75.1 nM, the Kd [1] was 5.64 nM and the IC50 [2, 4] was 78.7 nM.
`C[C@H](C1CC1)N1CCN(c2cc(NC(=O)Cn3cc(-c4cc(C(N)=O)c(O)c(F)c4F)c4c(=O)n5c(nc43)CCC5)c(Cl)c(F)n2)[C@@H](C)C1` [I-39, 5-(1-(2-((3-chloro-6-((S)-4-((R)-1-cyclo-propylethyl)-2-methyl-piperazin-1-yl)-2-fluoropyridin-4-yl)amino)-2-oxoethyl)-4-oxo-4,6,7,8-tetrahydro-1H-dipyrrolo[1,2-a:2′,3′-d]pyrimidin-3-yl)-3,4-difluoro-2-hydroxy-benzamide] was tested, and the EC50 (Karpas422 cells; [3]) was 384 nM, the Kd [1] was 34.9 nM and the IC50 [2, 4] was 210 nM.
